Assay results taken from publication PMC2865235 (Journal of pharmaceutical and biomedical analysis, 2010).
Where two headings read alike, the source gives them in different places. Blank lines part the entries; values can stand above or below the molecule they belong to.

Assays:
ABCG2 = conditions: cited from earlier work
[1] = system: Topo I cleavage complexes; conditions: drug 1 μM, compared with CPT or SN-38; ref [2]; cited from earlier work
MCF-7 cells = conditions: read-out: 72 h IC50, ref [2]; cited from earlier work
HCT-116 cells = conditions: read-out: 72 h IC50, ref [2]; cited from earlier work
P388 cells = conditions: read-out: 72 h IC50, ref [2]; cited from earlier work
[2] = human, 4 h
cell cycle = conditions: in vitro; ref [2]; cited from earlier work
ABCB1 = conditions: cited from earlier work

SMILES: CC[C@@]1(O)C(=O)OCc2c1cc1n(c2=O)Cc2cc3c(CN(C)C)c(O)ccc3nc2-1 [topotecan]
Substrate for the efflux pump ABCG2 (ABCG2; ref [2]): good substrates

Protein binding in human plasma: > 98% | Stability in plasma at room temperature [2]: > 94.3%
SMILES: COc1cc2c3c(n(CCCN4CCOCC4)c(=O)c2cc1OC)-c1cc2c(cc1C3=O)OCO2.Cl [NSC 743400]
Persistence of Topo I cleavage complexes after removal of drug [1]: persisted longer | IC50 (MCF-7 cells): 560 nM | IC50 (HCT-116 cells): 1200 nM | IC50 (P388 cells): 300 nM | Cell cycle arrest (cell cycle): cell cycle arrest in both S and G(2)-M

Protein binding in human plasma: > 98% | Stability in plasma at room temperature [2]: > 94.3%
SMILES: COc1cc2c3c(n(CCCn4ccnc4)c(=O)c2cc1OC)-c1cc2c(cc1C3=O)OCO2 [NSC 725776]
Persistence of Topo I cleavage complexes after removal of drug [1]: persisted longer | IC50 (MCF-7 cells): 90 nM | IC50 (HCT-116 cells): 130 nM | IC50 (P388 cells): < 30 nM | Substrate for ABCB1 (ABCB1): moderate substrate | Substrate for the efflux pump ABCG2 (ABCG2; not told): moderate substrate | Cell cycle arrest (cell cycle): cell cycle arrest in both S and G(2)-M

SMILES: CC[C@@]1(O)C(=O)OCc2c1cc1n(c2=O)Cc2cc3ccccc3nc2-1 [Camptothecin, camptothecin]
Substrate for the efflux pump ABCG2 (ABCG2; ref [2]): good substrates

SMILES: CCc1c2c(nc3ccc(O)cc13)-c1cc3c(c(=O)n1C2)COC(=O)[C@]3(O)CC [SN-38]
Substrate for the efflux pump ABCG2 (ABCG2; ref [2]): good substrates

SMILES: COc1cc2c3c(n(CCCN4CCOCC4)c(=O)c2cc1OC)-c1cc2c(cc1C3=O)OCO2 [NSC 724998]
Substrate for ABCB1 (ABCB1): not a substrate | Substrate for the efflux pump ABCG2 (ABCG2; not told): not a substrate
